Holding throughout (type): physicochemical
Series [1] in a line: Test of stability in solution (strong oxidizing solution, H2O2 at 0.3%); proportion of main N-oxide impurity. Conditions: room temperature. How it is done:
The sodium, L-lactate and L-tartrate salts of the compound of formula (I) were analyzed after one week of storage in a strong oxidizing solution: the three compounds were maintained in a solution of H2O2 at 0.3%, at room temperature. After either 6 hours or one week, the proportion of the main N-oxide impurity of the compound of formula (I) [drawing 4] was measured.

The nature of series [2]: Test of stability in the solid state (stress degradation, one week of storage). Conditions: for Stress degradation conditions 80°/saturated humidity: one week of storage at 80° C. under saturated humidity; for Stress degradation conditions 80° C./dry: one week of storage at 80° C., stable = optically, chemically and physically. As for the experimental part: The sodium, L-lactate and L-tartrate salts of the compound of formula (I) were analyzed after one week of storage, at: • 80° C. • 80° C. and under saturated humidity, […]

Series [3] can be described thus: Test of solubility in different buffers. As for the experimental part: The solubility of sodium, L-lactate and L-tartrate salts of the compound of formula (I) was analyzed in different buffers. The results are described in table below (solubility of the tested compound is expressed in mg/ml).
A short description of series [4]: Physical properties: hygroscopicity, water uptake, behavior under saturated humidity. Conditions: for Behavior under saturated humidity 80° C.: sodium and L-lactate: after 24 hours.
[5] abbreviates: 0.2M pH = 9 hydregenocarbonate buffer.

This is an account of results in patent publication US9637479B2, “Tartrate salt of 5-chloro-thiophene-2-carboxylic acid [(S)-2-[2-methyl-3-(2-oxo-pyrrolidin-1-yl)-benzenesulfonylamino]-3-(4-methyl-piperazin-1-yl)-3-oxo-propyl]amide” (SANOFI, priority 2013, dated 2017).

Counter-ions that a name gives are not always drawn. Like-named read-outs stand apart in the source and are kept apart here.

In the case of `Cc1c(N2CCCC2=O)cccc1S(=O)(=O)N[C@@H](CNC(=O)c1ccc(Cl)s1)C(=O)N1CCN(C)CC1` [L-lactate salt, 5-chloro-thiophene-2-carboxylic acid [(S)-2-[2-methyl-3-(2-oxo-pyrrolidin-1-yl)-benzenesulfonylamino]-3-(4-methyl-piperazin-1-yl)-3-oxo-propyl]amide], in series [1] (after 1 week), the “% of impurity (main N-oxide impurity)” value is recorded as 6.9% after 1 week. In series [2], the “Stress degradation conditions 80°/saturated humidity” value is “slight degradation”. The “Stress degradation conditions 80° C./dry” value in series [2] is recorded as “stable*”. Besides, the Solubility – broadly, how much of the substance goes into solution per volume – is greater than 10000 µg/mL in series [3] (0.1M pH = 4 phosphate buffer); greater than 10000 µg/mL in series [3] (0.1M pH = 6.5 phosphate buffer); 9800 µg/mL in series [3] (0.1M pH = 7.4 phosphate buffer); greater than 10000 µg/mL in series [3] (0.1N HCl); 8500 µg/mL in series [3] (setting [5]); greater than 10000 µg/mL in series [3] (Purified water). The Hygroscopicity result in series [4] was “Hygroscopic”. For the same compound, the “Water uptake 80% RH 25° C.” value in series [4] is given as 2.5%. Besides, in series [4], the “Behavior under saturated humidity 80° C.” value is “Gel formation-amorphous”.

Regarding `Cc1c(N2CCCC2=O)cccc1S(=O)(=O)N[C@@H](CNC(=O)c1ccc(Cl)s1)C(=O)N1CCN(C)CC1` [L-tartrate salt, 5-chloro-thiophene-2-carboxylic acid [(S)-2-[2-methyl-3-(2-oxo-pyrrolidin-1-yl)-benzenesulfonylamino]-3-(4-methyl-piperazin-1-yl)-3-oxo-propyl]amide], in series [1] (after 1 week), the “% of impurity (main N-oxide impurity)” value was found to be 0.77% after 1 week. The “Stress degradation conditions 80°/saturated humidity” value in series [2] was “stable”. Also, in series [2], the “Stress degradation conditions 80° C./dry” value was “stable*”. Further, the Solubility in series [3] (0.1M pH = 4 phosphate buffer) is greater than 10000 µg/mL; in series [3] (0.1M pH = 6.5 phosphate buffer) it was greater than 10000 µg/mL; in series [3] (0.1M pH = 7.4 phosphate buffer), greater than 10000 µg/mL; in series [3] (0.1N HCl) it was greater than 10000 µg/mL; in series [3] (setting [5]), 8300 µg/mL; in series [3] (Purified water), greater than 10000 µg/mL. In series [4], the Hygroscopicity entry was “Slightly”. The “Water uptake 80% RH 25° C.” value in series [4] worked out at 0.9%. In series [4], the “Behavior under saturated humidity 80° C.” value is recorded as “Stable 7 days”.

In the case of `Cc1c(N2CCCC2=O)cccc1S(=O)(=O)N[C@@H](CNC(=O)c1ccc(Cl)s1)C(=O)N1CCN(C)CC1` [Sodium salt, 5-chloro-thiophene-2-carboxylic acid [(S)-2-[2-methyl-3-(2-oxo-pyrrolidin-1-yl)-benzenesulfonylamino]-3-(4-methyl-piperazin-1-yl)-3-oxo-propyl]amide], in series [1] (after 6 hours), the “% of impurity (main N-oxide impurity)” value is recorded as 25.4% after 6 hours. In addition, the “Stress degradation conditions 80°/saturated humidity” value in series [2] is listed as “huge degradation”. Further, in series [2], the “Stress degradation conditions 80° C./dry” value was “stable*”. The Solubility in series [3] (0.1N HCl, simulated gastric fluid, 0.1N HCl, read-out: Solubility) was greater than 10000 µg/mL; in series [3] (hydrogenocarbonate buffer, pH 9, aqueous buffer, 0.2M pH = 9 hydregenocarbonate buffer, read-out: Solubility), greater than 10000 µg/mL; in series [3] (phosphate buffer, pH 4, aqueous buffer, 0.1M pH = 4 phosphate buffer, read-out: Solubility), 8900 µg/mL; in series [3] (phosphate buffer, pH 6.5, aqueous buffer, 0.1M pH = 6.5 phosphate buffer, read-out: Solubility), 6500 µg/mL; in series [3] (phosphate buffer, pH 7.4, aqueous buffer, 0.1M pH = 7.4 phosphate buffer, read-out: Solubility), 6900 µg/mL; in series [3] (purified water, water, Purified water, read-out: Solubility), greater than 10000 µg/mL. In addition, in series [4], the Hygroscopicity result was “Highly”. In addition, the “Water uptake 80% RH 25° C.” value in series [4] was determined as 31.5%. Also, the “Behavior under saturated humidity 80° C.” value in series [4] is listed as “Deliquescence”.
